Results on two molecules are retold here after US4070484A, “Antiallergic composition containing aromatic carboxylic amide derivatives and method of using the same” (Kissei Pharmaceutical Co., Ltd., priority 1973, dated 1978).

“Also recorded” adds a separate entry of the source. Read-outs that look alike come from different tables or passages of the source.

The test system of data set [1] is adult patients having asthma bronchiale. Put plainly: Clinical trial for adults. The class given is in vivo, human. The conditions noted are these: oral. The text has this:
A clinical trial was made by administering 2-(3',[…]-dimethoxycinnamoylamino)-benzoic acid orally to adult patients having asthma bronchiale. These patients having asthma bronchiale were chosen from those suffering from atopic and mixed forms. Determination of the effect were integrally judged from the extent of subjective symptoms (the number of asthma attacks, the degree of dyspnea, wheeze, the number of cough attacks and sputum expectoration), objective findings (dry rale) and pulmonary function test.
The effect was evaluated by five grades of "remarkable improvement", "moderate improvement", "slight improvement", "unchanged", and "aggravated". A daily dose (400-600 mg) of the active compound in the powdery preparation obtained in Example 12 was administered orally to patients in equal portions four times daily, ie, after every meal and before sleeping.

Data set [2] concerns homologous passive cutaneous anaphylaxis (antigen-antibody reaction). Put plainly: Homologous Passive Cutaneous Anaphylaxis in Rats. It is filed as in vivo, rat (Wistar male). The conditions noted are these: Rattus norvegicus, po; 200 mg/kg orally 2 hours prior to the injection of antigen. The procedure:
Wistar male rats weighing 120-150 g were used in this experiment. […]. Normal rats were sensitized passively with dilution of the antibody by means of intradermal injection. After 48 hours of the sensitization, the mixture of antigen (EA) and evens blue was injected intravenously. The animals were killed by a blow on the head 30 minutes after the injection, and then the blue spot resulted from the antigen-antibody reaction was measured photometrically.
A given test compound dissolved in 1 % NaHCO3 solution was administrated in a dose of 200 mg/kg orally 2 hours prior to the injection of antigen, while only the vehicle solution was administered to the control group.
The efficacy of the test compounds to inhibit the homologous passive cutaneous anaphlaxis was compared with the value (%) calculated using the following formula: [formula] wherein A stands for the amount of leaked dye in control group and B for the amount of leaked dye in the group administered with a given test compound.

The test system of data set [3] is sensitized mesenteric mast cells. Briefly: Effect on the Disruption of the Sensitized Mast Cells. The class given is cell-based, rat. The note with it: 10^-5 g/ml, 5 minutes prior to the treatment of antigen. The procedure: Mesenteric mast cells isolated from normal rats were sensitized passively by means of incubation with rat reaginic antibody at 37° C. After termination of the incubation, the specific antigen (DNP-Ascaris) was added to the incubation medium, then these mast cells in mesentery were fixed with formalin and stained with 0.1 % toluidine blue (in acetic acid buffer; pH: 4.6). The number of mast cells disrupted as a consequence of the antigen-antibody reaction were counted under a microscope. The number of the mast cells disrupted were also counted without the addition of the specific antigen.
A given test compound dissolved in 1 % NaHCO3 solution was added to the incubation medium at a concentration of 10^-5 g/ml, 5 minutes prior to the treatment of antigen, while only the vehicle was added to the control group.
The efficacy of the test compounds to inhibit the mast cell disruption was compared with the value (%) calculated using the following formula: [formula] wherein P stands for the percentage of disrupted mast cells in the control group, Q for the percentage of mast cells disrupted spontaneously and R for the percentage of disrupted mast cells in the group treated with a given test compound.

Data set [4] can be described thus: Acute Toxicity (LD50) in mice. The class given is in vivo. The conditions noted are these: mouse, in vivo, po, mortality on the 8th day. As to the method:
(§1) The median lethal dose (LD50) of the new aromatic carboxylic acid amide derivatives of this invention were determined in dd-stain male and female mice (6 weeks old) by oral administration and in Wistar strain male and female rats (7 weeks old) by oral and intraperitoneal administration. Each animal selected for the experiment was maintained in an air conditioned room at a temperature of 22° ± 1° C and a relative humidity of 55 ± 5% during the full course of the experiment. All animals were fed compressed pellets (CE-2 type produced by Japan CLEA Co.) and water was available ad libitum by bottle. Five groups of ten animals for each administration route were used.
(§2) Since these compounds were isoluble in water, they were suspended in a 0.5% aqueous solution of carboxymethylcellulose at each dosage level. The administrative volume of each agent to 10 g body weight mouse was 0.2 ml for oral administration, while that to 100g body weight of rat was 0.5 ml for intraperitoneal and oral administrations.
(§3) The LD50 values were calculated from the mortality on the 8th day by the Litchfield-Wilcoxon's method.

Data set [5] concerns dd-stain mice. Briefly: Acute Toxicity (LD50) in mice. It is filed as in vivo. The note with it: oral, mortality on the 8th day, 11520 min. As to the method: as §1, §2, §3
Data set [6] deals with Wistar strain rats. Briefly: Acute Toxicity (LD50) in rats. It is filed as in vivo. The note with it: mortality on the 8th day, 11520 min. The procedure: as §1, §2, §3
Data set [7] can be described thus: Acute Toxicity (LD50) in rats. It is filed as in vivo. The conditions noted are these: rat, in vivo, mortality on the 8th day. The procedure: as §1, §2, §3
Data set [8] has as its system experimental asthma in rats. Briefly: Experimental Asthma in Rats. It is filed as in vivo, rat. The note with it: for minimal effective dose: Rattus norvegicus, oral, 2 hours before antigen injection. As to the method:
Twenty normal male rats weighing 120-150 g were divided into four groups each consisting of five rats. All of the rats were sensitized passively by means of intravenous injection of rat reaginic antibody. After a lapse of 22 hours of sensitization, 5 milliliters of a 1% aqueous solution of NaHCO3 containing (3',4'-dimethoxycinnamoylamino)-benzoic acid* in a dose of 0 mg/kg (control), 5 mg/kg, 10 mg/kg and 20 mg/kg were orally administered to the rats in each group, and then canulation was begun on both the trachea and the common carotid artery on the rats. The rate and volume of respiration and systemic blood pressure were recorded simultaneously on a polygraph.
After 2 hours of administration, the challenge symptoms were subjected, by means of injection of the antigen, and the results are shown in the drawing attached herewith.

The test system of data set [9] is child patients having asthma bronchiale. Briefly: Clinical trial for children. The class given is in vivo, human. The note with it: oral. The source says: A clinical trial was made by orally administering Compound No. 33 to child patients having asthma bronchiale. Child patients having asthma bronchiale in atopic and mixed forms were chosen for the clinical trial. Determination of the effect was integrally judged from the extent of subjective symptoms (the number of asthma attacks, the degree of dyspnea, wheeze, the number of cough attacks and sputum expectoration), objective findings (dry rale) and pulmonary function test.
The effect was evaluated by five grades of "remarkable improvement", "moderate improvement", "slight improvement", "unchanged"and "aggravated". A daily dose (100-200 mg) of the active compound in the powdery preparation obtained in Example 12 was administered orally to patients in equal portions four times a day, i.e., after every meal and before sleeping.

Data set [10] deals with antiallergic action, oral administration to mammalia. The conditions noted are these: known art; cited from earlier work.
Data set [11] relates to mast cells. The note with it: known art, cited from earlier work.

Take `COc1ccc(C=CC(=O)Nc2ccccc2C(=O)O)cc1OC` [Compound No. 33, N-(3',4'-dimethoxycinnamoyl)-anthranilic acid]: the Evaluation result in [1] (400mg × 14 days) is reported as “slight imp”; in data set [1] (400mg × 21 days), “mod. impr”; in [1] (600mg × 14 days, row) it was “slight imp; also recorded: mod. impr”; in data set [1] (600mg × 20 days), “unchanged”; in data set [1] (600mg × 21 days), “unchanged”; in [1] (600mg × 24 days) it was “mod. impr”. Besides, the Evaluation result in [9] (200 mg × 15 days) is given as “mod. impr”; in data set [9] (200 mg × 29 days), “slight impr”; in data set [9] (200 mg × 35 days) it was “slight imp”. Further, the Side effect result in data set [1] (400mg × 14 days), in data set [1] (400mg × 21 days), in data set [1] (600mg × 14 days), in data set [1] (600mg × 20 days), in data set [1] (600mg × 21 days) and in data set [1] (600mg × 24 days) was “none” throughout. Besides, the Side effect result in data set [9] (200 mg × 15 days), in [9] (200 mg × 29 days) and in [9] (200 mg × 35 days) was “none” in each case. In [2], the inhibition at 200 mg/kg worked out at 46.1%. Also, in data set [3], the “Inhibition percentage (mast cell disruption)” value stood at 33%. Moreover, the LD50 at 192 h stood at 705 mg/kg in data set [4]; 385 mg/kg in data set [7] (ip, intraperitoneal); 1850 mg/kg in data set [7] (po). For the same molecule, the LD50 in [5] amounted to 500 mg/kg; in [6] (intraperitoneal), 338 mg/kg; in [6] (oral), 2030 mg/kg. Besides, the results for the minimal effective dose in data set [8] (read-out: dose showing inhibition of decrease in the rate of respiration) and in data set [8] (read-out: dose showing inhibition of decrease in the volume of respiration) were no less than 5 mg/kg and no less than 10 mg/kg, respectively. Further, in [8] (oral 5, 10, 20 mg/kg), the “Asthmatic symptoms resulting from the challenge” value is reported as “observed in the control group only”. In data set [8] (oral 5, 10, 20 mg/kg, just after the challenge), the “effect on depression of blood pressure just after the challenge” value is given as “no inhibiting effect”. Besides, the “effect on subsequent depression of blood pressure” value in data set [8] (oral 5, 10, 20 mg/kg, subsequent depression) is “showed an inhibiting effect on subsequent depression”.
`O=C(O)c1cc(=O)c2c(OCC(O)COc3cccc4oc(C(=O)O)cc(=O)c34)cccc2o1` [Disodium cromoglycate]: the “Inhibition percentage (mast cell disruption)” value in data set [3] is listed as 16%. For the same molecule, the “pharmacological effect when administered orally (in words)” value in data set [10] is reported as “loses its pharmacological effect when administered orally”. Besides, the “inhibition of mast cell disruption (in words)” value is “inhibitor of mast cell disruption” in data set [11]; “inhibits the disruption of mast cells and release therefrom of chemical mediators” in data set [11] (listed as disodium cromoglycate).
